Results as given in patent US20210235699A1, “Adjuvant Compositions Comprising a Tetramethylguanidine and a 4-Isothiazolin-3-One” (Lonza, LLC, priority 2018, published 2021).
Counter-ions that a name gives are not always drawn. Marks after values point to notes of the source that are not given here.

Key:
[1] = tested on: combined bacterial test inoculum: Acinetobacter calcoaceticus, Escherichia coli, Pseudomonas aeruginosa, Enterobacter cloacae; assay: Bacterial challenge test (ASTM D2574-97, modified) in standard water based interior paint; type: cell-based; parameters: key to Streak plate rank, 1st inoculation 24 h / Streak plate rank, 1st inoculation 72 h / Streak plate rank, 2nd inoculation 72 h / Streak plate rank, 3rd inoculation 24 h: 0 = no growth; 1 = 1-5 Colony Forming Unit (cfu); 2 = 6-15 cfu; 3 = 16-30 cfu; 4 = 31-45 cfu; 5 = greater than 45 cfu; 5c = Confluent Growth; details: for Dilution plate count, 3rd inoculation 72 h / Streak plate rank, 3rd inoculation 24 h: inoculum 2.50%; for Streak plate rank, 2nd inoculation 72 h: inoculum 5%; for Streak plate rank, 1st inoculation 24 h / Streak plate rank, 1st inoculation 72 h: inoculum 10%; for effect of guanidine on bactericidal activity of 4-isothiazolin-3-ones (in words): in combination with BIT and BBIT, Tables 3 and 5
Protocol: (§1) The following bacterial and fungal challenge tests were performed to ascertain whether low concentrations of 4-isothiazolin-3-one biocidal active compounds, pyrithione, coumarin or guanidine adjuvant are sufficient to prevent microbial contamination of final products when deliberately inoculated with spoilage microbes.
(§2) The tests were performed according to ASTM standard D2574-97 (Standard Test Method for Resistance of Emulsion Paints in the Container to Attack by Microorganisms, ASTM International, West Conshohocken, Pa.), with higher inoculation volumes and frequency. A standard water based interior paint was used as the test substrate. Sample sizes of 20 g test substrate were used and the test samples were prepared in a sterile 30 mL square Nalgene bottle.
The bacteria were grown on pH 5, 7, or 9 Trypticase Soy Agar (TSA) lawns. The bacteria were grown individually on TSA and harvested by using sterile buffered water. The bacterial lawns were washed off with 30 mL of sterile water and an equal volume of each individual cell suspension was withdrawn from each serum bottle to make a combined cell suspension. Combined bacterial suspension were about 10^7 cfu/mL, which provides about 10^6 cfu/mL in the sample.
(§3) The following microorganisms were used for inoculation of the tested samples:
For the bacterial challenge testing, each sample was inoculated with a combined bacterial test inoculum volume equivalent to 10% of the total initial sample volume for the initial inoculation, 5% of the total initial sample volume for the second inoculation and 2.5% of the total initial sample volume for the third inoculation. Inoculum volumes for the fungal challenge tests were 2%, 1% and 0.5% of the total initial sample volume, respectively. Samples were inoculated every 96 h.
(§4) Concentrations of biocidal active compounds and adjuvants refer to the final concentration in the test samples prior to the first inoculation.
(§5) The efficacy of the added agent in each sample was monitored by means of a streak plate test after 24 hours (all inoculations) and 72 hours of inoculation (first and second inoculation). At 72 hours of the third inoculation performed, a dilution plate count was performed in order to obtain a quantitative measurement of contamination (cfu/mL). A count of less than 10 colony forming units per mL ([…]) is considered to show no measurable contamination. For the streak plate tests, bacterial samples were streaked on Tryptic Soy Agar (TSA) and incubated for 48 hours at 30° C. before reading. Fungal samples were streaked on Potato Dextrose Agar (PDA) and incubated for 5 days at 25° C. before reading.
(§6) The streak plates were ranked from 0-5c according to the degree of microbial growth:
(§7) The challenge tests were performed as described above.

[2] = tested on: fungal test inoculum: Aspergillus niger, Penicillium funiculosum, Candida albicans; assay: Fungal challenge test (ASTM D2574-97, modified) in standard water based interior paint; type: cell-based; parameters: key to Streak plate rank, 2nd inoculation 72 h / Streak plate rank, 1st inoculation 72 h / Streak plate rank, 1st inoculation 24 h / Streak plate rank, 2nd inoculation 24 h / Streak plate rank, 3rd inoculation 24 h: 0 = no growth; 1 = 1-5 Colony Forming Unit (cfu); 2 = 6-15 cfu; 3 = 16-30 cfu; 4 = 31-45 cfu; 5 = greater than 45 cfu; 5c = Confluent Growth; details: for Dilution plate count, 3rd inoculation 72 h / Streak plate rank, 3rd inoculation 24 h: inoculum 0.50%; for effect of guanidine on fungicidal activity of 4-isothiazolin-3-ones (in words): in combination with BIT and BBIT, Tables 4 and 6
Protocol: as §1, §2
Fungal lawns were grown on Potato Dextrose Agar (PDA) or Sabouraud Dextrose Agar (SAB). Individual fungal spore suspensions were harvested by adding 10 mL of sterile 0.05% Triton X to fungal lawns. The lawns were then gently agitated by rubbing a sterile swab on the lawn, being careful not to puncture the agar. The liquid was then aseptically transferred to a sterile bottle containing sterile glass beads. The top of the bottle was closed and the bottle shaken vigorously to break up any chunks in the suspension. The shaken spore suspension was decanted through sterile fibers into another sterile bottle. The decanted spore suspension was counted using a hemocytometer. Once the spore counts were determined, each suspension was diluted in order to obtain 10^6 spore/mL. Each diluted fungal suspension was poured into a sterile container.
as §3
For the bacterial challenge testing, each sample was inoculated with a combined bacterial test inoculum volume equivalent to 10% of the total initial sample volume for the initial inoculation, 5% of the total initial sample volume for the second inoculation and 2.5% of the total initial sample volume for the third inoculation. […] Samples were inoculated every 96 h.
as §4, §5, §6, §7

[Na+].[O-][n+]1ccccc1[S-] [NaPT, sodium pyrithione]
Dilution plate count, 3rd inoculation 72 h ([1]; 80 ppm): 2.2 × 10^7 cfu/mL
Streak plate rank, 3rd inoculation 24 h ([1]; 80 ppm): 5c
Streak plate rank, 2nd inoculation 72 h ([1]; 80 ppm): 5c
Streak plate rank, 1st inoculation 24 h ([1]; 80 ppm): 5c
Streak plate rank, 1st inoculation 72 h ([1]; 80 ppm): 5c
Dilution plate count, 3rd inoculation 72 h ([2]; 80 ppm): <10 cfu/mL
Streak plate rank, 3rd inoculation 24 h ([2]; 80 ppm): 0
Streak plate rank, 2nd inoculation 24 h ([2]; 80 ppm, inoculum 1%): 0
Streak plate rank, 2nd inoculation 72 h ([2]; 80 ppm, inoculum 1%): 0
Streak plate rank, 1st inoculation 24 h ([2]; 80 ppm, inoculum 2%): 0
Streak plate rank, 1st inoculation 72 h ([2]; 80 ppm, inoculum 2%): 0

O=c1ccc2ccccc2o1 [Coumarin]
Dilution plate count, 3rd inoculation 72 h ([1]; 500 ppm): 3.5 × 10^6 cfu/mL
Streak plate rank, 3rd inoculation 24 h ([1]; 500 ppm): 5c
Streak plate rank, 2nd inoculation 72 h ([1]; 500 ppm): 5c
Streak plate rank, 1st inoculation 24 h ([1]; 500 ppm): 5c
Streak plate rank, 1st inoculation 72 h ([1]; 500 ppm): 5c
bactericidal activity (in words) ([1]; used individually, Table 1): no bactericidal activity
Dilution plate count, 3rd inoculation 72 h ([2]; 500 ppm): 1.1 × 10^2 cfu/mL
Streak plate rank, 3rd inoculation 24 h ([2]; 500 ppm): 4 (4 = 31-45 cfu)
Streak plate rank, 2nd inoculation 72 h ([2]; 500 ppm, inoculum 1%): 2 (2 = 6-15 cfu)
Streak plate rank, 1st inoculation 24 h ([2]; 500 ppm, inoculum 2%): 3 (3 = 16-30 cfu)
Streak plate rank, 1st inoculation 72 h ([2]; 500 ppm, inoculum 2%): 3 (3 = 16-30 cfu)

CNC(=N)N [methylguanidine HCl, Methylguanidine HCl]
effect of guanidine on bactericidal activity of 4-isothiazolin-3-ones (in words) [1]: not achieved
effect of guanidine on fungicidal activity of 4-isothiazolin-3-ones (in words) [2]: not achieved

CCCCCCN(CCCCCC)C(=N)N.I [N,N-dihexylguanidine HI]
effect of guanidine on bactericidal activity of 4-isothiazolin-3-ones (in words) [1]: not achieved
effect of guanidine on fungicidal activity of 4-isothiazolin-3-ones (in words) [2]: not achieved

CCCCn1sc2ccccc2c1=O [BBIT, N-(n-butyl)-1,2-benzisothiazolin-3-one]
Dilution plate count, 3rd inoculation 72 h ([1]; 25 ppm): 8.3 × 10^6 cfu/mL
Streak plate rank, 3rd inoculation 24 h ([1]; 25 ppm): 5c
Streak plate rank, 2nd inoculation 72 h ([1]; 25 ppm): 5c
Streak plate rank, 1st inoculation 24 h ([1]; 25 ppm): 5c
Streak plate rank, 1st inoculation 72 h ([1]; 25 ppm): 5c
Dilution plate count, 3rd inoculation 72 h ([1]; 50 ppm): 6.0 × 10^6 cfu/mL
Streak plate rank, 3rd inoculation 24 h ([1]; 50 ppm): 5c
Streak plate rank, 2nd inoculation 72 h ([1]; 50 ppm): 5c
Streak plate rank, 1st inoculation 24 h ([1]; 50 ppm): 5c
Streak plate rank, 1st inoculation 72 h ([1]; 50 ppm): 5c
Dilution plate count, 3rd inoculation 72 h ([1]; 100 ppm): 5.6 × 10^6 cfu/mL
Streak plate rank, 3rd inoculation 24 h ([1]; 100 ppm): 5c
Streak plate rank, 2nd inoculation 72 h ([1]; 100 ppm): 5c
Streak plate rank, 1st inoculation 24 h ([1]; 100 ppm): 5c
Streak plate rank, 1st inoculation 72 h ([1]; 100 ppm): 5c
Dilution plate count, 3rd inoculation 72 h ([2]; 25 ppm): 1.0 × 10^1 cfu/mL
Streak plate rank, 3rd inoculation 24 h ([2]; 25 ppm): 2 (2 = 6-15 cfu)
Streak plate rank, 2nd inoculation 72 h ([2]; 25 ppm, inoculum 1%): 0
Streak plate rank, 1st inoculation 24 h ([2]; 25 ppm, inoculum added was 5%): 4* (4 = 31-45 cfu)
Streak plate rank, 1st inoculation 72 h ([2]; 25 ppm, inoculum added was 5%): 1* (1 = 1-5 Colony Forming Unit (cfu))
Dilution plate count, 3rd inoculation 72 h ([2]; 50 ppm): <10 cfu/mL
Streak plate rank, 3rd inoculation 24 h ([2]; 50 ppm): 1 (1 = 1-5 Colony Forming Unit (cfu))
Streak plate rank, 2nd inoculation 72 h ([2]; 50 ppm, inoculum 1%): 0
Streak plate rank, 1st inoculation 24 h ([2]; 50 ppm, inoculum added was 5%): 3* (3 = 16-30 cfu)
Streak plate rank, 1st inoculation 72 h ([2]; 50 ppm, inoculum added was 5%): 1* (1 = 1-5 Colony Forming Unit (cfu))
Dilution plate count, 3rd inoculation 72 h ([2]; 100 ppm): <10 cfu/mL
Streak plate rank, 3rd inoculation 24 h ([2]; 100 ppm): 1 (1 = 1-5 Colony Forming Unit (cfu))
Streak plate rank, 2nd inoculation 72 h ([2]; 100 ppm, inoculum 1%): 0
Streak plate rank, 1st inoculation 24 h ([2]; 100 ppm, inoculum added was 5%): 4* (4 = 31-45 cfu)
Streak plate rank, 1st inoculation 72 h ([2]; 100 ppm, inoculum added was 5%): 1* (1 = 1-5 Colony Forming Unit (cfu))
